# Data as given in US8628753B2, “Reduced dye probes for the detection of radical oxygen species” (Emory University, priority 2008, dated 2014).
# What was measured:
# [1] = system: rat aortic smooth muscle (RASM) cells; assay: Detection of ROS in RASM cells during Ang II mediated cell signaling; format: cell-based; conditions: for background fluorescence / detection of intracellular ROS after Ang II stimulation: 10 minutes; for detection of intracellular ROS after Ang II stimulation: fluorescent microscopy
# Protocol: The ability of hydrocyanines to detect ROS in rat aortic muscle (RASM) cells during angiotensin (Ang) II mediated cell signaling was evaluated using fluorescence spectroscopy. Ang II-mediated ROS production in aortic smooth muscle cells has been implicated in the development of atherosclerosis and hypertension.
# […] […] It is evident from fluorescence measurements that hydro-Cy3 is sensitive enough to detect even the ROS production by normal cells, causing relatively higher background fluorescence. On the other hand, because of the tuned reaction rate, deutero-Cy3 can only detect the overproduction of ROS during Ang-II mediated ROS over-production.
# The ability of D-DHE to detect ROS in rat aortic muscle (RASM) cells during angiotensin (Ang) II mediated cell signaling was evaluated using fluorescence spectroscopy. A comparative cell-culture study between DHE and D-DHE was conducted to evaluate the ability of DHE and D-DHE to detect ROS production in rat aortic smooth muscle (RASM) cells, during angiotensin (Ang) II mediated cell signaling.
# […] […] Stimulation of RASMs with Ang II was not detected with DHE due to the high level background fluorescence.
# physchem = conditions: for half-life: buffer, pH 7.4
# Protocol: A solution of hydrocyanine in PBS buffer (pH 7.4) was placed in an Eppendorf tube and placed in a 37° C. water bath. Stability was measured by monitoring the formation of the oxidation product using fluorescence spectroscopy over a 24 hour period. The excitation and emission wavelengths for DHE were 515 and 590 nm.
# The stability of deuterocyanines was evaluated in the same manner.
# [2] = Sensitivity of DHE and D-DHE to Fenton's reagent in PBS; conditions: 50 μM probe in PBS; FIG. 4
# Protocol: The sensitivity of deuterohydroethydium (D-DHE or DDE) was evaluated in the same manner. A 50 μM solution of DHE or D-DHE (DDE) in PBS buffer was treated with Fenton's reagent (using 1-60 nM H2O2 with Fe^2+) and the fluorescence of the oxidized product was measured.
# carotid arteries = assay: DHE staining of carotid artery sections after carotid ligation; parameters: species or system Mice; conditions: 10 μmol/L in PBS, 30 minutes at 37° C.; 14 days after ligation
# Protocol: Mice were anesthetized with ketamine/xylazine and their left carotid arteries were exposed and tied with a 6-0 silk suture 1 cm below the bifurcation as described in the literature. The control was sham operated mice. The mice were sacrificed 14 days after ligation and their carotid arteries were isolated and frozen, enzymatically-intact, and 30 μm-thick sections of sham operated and injured carotid arteries were made. The frozen sections were incuvated with DHE (10 μmol/L) in PBS for 30 minutes at 37° C. in a humidified chamber protected form light. DHE is oxidized on reaction with superoxide to ethidium bromide, which binds to DNA in the nucleus and fluoresces red. The DHE stained slides were imaged on a confocal microscope. The ethidium bromide fluorescence was detected using a 543 nm He—Ne laser for excitation and a 560 nm long pass filter for emission. The autofluorescence of the elastic laminae was detected using a 488 nm Ar laser for excitation combined with a 500-550 nm band pass filter for emission.
# [3] = Fluorescence of hydrocyanines before and after reaction with superoxide (KO2); format: physicochemical; conditions: for λem: emission wavelength of the corresponding oxidized product; for λex: excitation wavelength of the corresponding oxidized product; for Fold Increase in Intensity: oxidized versus reduced dye, 7.5 μM in 1 mL methanol, oxidized with 20 μL DMSO containing 20 mM KO2
# Protocol: Superoxide (O2^−) was created by the enzymatic reaction of XA/XO (10 lm/10 mU) at 25° C. for 5 min (XA=[…]). XA/XO (10 lm/10 mU) was added to buffered solutions of Hydro-Cy3 ([…]) maintained in a 37° C. water bath. The fluorescence emission of each reaction mixture was measured at 5-min intervals against a reagent blank using a fluorescence spectrometer. In some cases solid KO2 (1 mg) or KO2 dissolved in DMSO was added to a Hydro-IR-786 solution in methanol or DMSO and the emission spectra was recorded. Alternatively, hydro-IR-786 (2 mg) was dissolved in 1 mL of ethanol and 50 μL of […] KO2 solution (7 mg KO2 was dissolved in 10 mL dimethylsulfoxide) was added and stirred for 15 min before recording the emission spectra.
# [4] = system: live, explanted mouse aortas; assay: Detection of ROS in live, explanted mouse aortas after LPS stimulation; parameters: species or system C57B1/6 mice; conditions: for detection of ROS in tissue explants (LPS versus PBS): confocal fluorescent imaging
# Protocol: The ability of hydrocyanines to detect ROS from live, explanted mouse aortas, after lipopolysaccharide endotoxin (LPS) stimulation to produce ROS, was evaluated. The detection of ROS in live tissue can provide information about ROS production in a physiological environment that closely resembles in vivo conditions. C57B1/6 mice were treated with either 16 mg/kg lipopolysaccharide endotoxin (LPS) or PBS for 16 hours and then euthanized. The aortas of the mice were isolated and incubated with either Hydro-Cy3 or Hydro-Cy3+TEMPOL for 15 minutes. Sections of the aorta were made, fixed with 10% formalin, and mounted en face.
# For example, the fluorescence intensity of the LPS-treated slide was 183.2 RFU/S compared to 46.9 RFU/S in the PBS-treated mice. Application of TEMPOL (small molecule cell-permeable superoxide dismutase mimetic1, which attenuates superoxide anion and peroxynitrite-induced inflammation) to mouse aortas, treated with LPS, reduced the fluorescence to control levels.
# RASM cells = assay: Trypan blue cell viability assay; format: cell-based, rat; conditions: experimental conditions of RASM assay and higher concentrations (1 mM)
# [5] = Sensitivity to hydroxide radical generated from H2O2 and Fe2+
# Protocol: Hydroxide radicals were generated in situ by reacting hydrogen peroxide with Fe^2+. Various quantities of hydrogen peroxide (H2O2) stock solutions were added to a solution of hydrocyanine in methanol to generate hydrogen peroxide concentrations from about 2 to about 30 nM. Aqueous Fe^2+(1 μM) was added to the reduced dye/H2O2 solution to generate a 200 nM concentration. The resulting solution was kept at ambient temperature for 5 minutes and the fluorescence intensity was measured (λex/λem) against a reagent blank (control solution containing only reagent) simultaneously.
# This measurement was carried out using 100 μM of Hydro-ICG at 25° C. The hydroxide radical was generated using the procedure described above.
# [6] = system: ROS production generated by activated macrophages and neutrophils; assay: In vivo imaging of ROS in LPS model of acute inflammation; parameters: species or system C57B1/6 mice; conditions: 5 nanomoles i.p., 6 hours after LPS (1 mg i.p.); abdominal area; FIG. 7
# Protocol: The ability of hydrocyanines to image ROS production, in vivo, generated by activated macrophages and neutrophils, in an LPS model of acute inflammation was evaluated. Nine C57B1/6 mice were divided into three groups: Group I was given an intraperitoneal (i.p.) injection of LPS (1 mg in 400 μL saline); Group II was given saline (400 μL); and Group III was untreated. After 6 hours, the mice were anaesthetized, their abdominal fur was removed, and the LPS and saline treated mice were injected i.p. with Hydro-Cy7 (5 nanomoles in 50 μL methanol). The mice were images as triplets, one from each group, using a Kodak FX in vivo images with a 700 nm excitation laser and a 790 nm emission filter. […] The mean fluorescent intensity, from the abdominal area, from the three sets of mice was also quantified using Image-Pro software. LPS-treated mice had approximately two-fold higher fluorescence intensity than the saline group.
# [7] = Specificity to various reactive oxygen species; conditions: 50 μM probe in PBS with 1% methanol; equimolar ROS; 5 minutes at 25° C.; FIG. 5
# Protocol: A 50 μm Hydro-Cy7 solution was prepared in phosphate buffered saline (PBS) containing 1% methanol. Various reactive oxygen species were added to the 50 μm Hydro-Cy7 solution, at an equimolar ratio to Hydro-Cy7, and the fluorescence intensity was recorded after incubating 5 minutes at 25° C. Superoxide (O2^−) was added as solid KO2. Stock solutions of hydrogen peroxide, t-butyl hydrogen peroxide (TBHP), hypochlorite, 3-morpholinosydnonimine (SIN-1), glutathione (GSH), and 1,4-hydroquinone were prepared and added to the Hydro-Cy7 solution to generate a final concentration of 50 μM. 3-(aminopropyl)-1-hydroxy-3-isopropyl-2-oxo-1-triazene (NOC-5, 1 mM) was prepared as a 10 mM sodium hydroxide solution and added to the Hydro-Cy7 solution to generate a final concentration of 50 μM. The hydroxide and butoxy radicals were generated in situ by reacting hydrogen peroxide and t-butylperoxide with Fe^2+. A 50 μM Hydro-Cy7 solution, in PBS, containing 500 μM Fe^2+ was prepared and either hydrogen peroxide or t-butyl hydrogen peroxide was added to this solution to generate a final concentration of 50 μM.
λem [3] [nm],λex [3] [nm],half-life (physchem) [days],SMILES,background fluorescence ([1]; probe 10 μM),detection of intracellular ROS after Ang II stimulation ([1]; probe 10 μM),detection of ROS (fluorescence) in cells incubated with Ang II ([1]; probe 100 μM),detection of ROS in tissue explants (LPS versus PBS) [4],Fold Increase in Intensity [3] [fold],also measured
560,535,~3,CCN1/C(=C/C=C/C2N(CC)c3ccccc3C2(C)C)C(C)(C)c2ccccc21 (centres unmarked) [Hydro-Cy3],–,–,intense intracellular fluorescence,significantly higher fluorescence intensity,118,"cellular toxicity (RASM cells): no cellular toxicity; concentration range of linear concentration curve against hydroxide radical [5]: 5 to 50 nM; detected concentration of hydroxide radical [5]: 5 nM; change in fluorescence on application of TEMPOL ([1]; cells treated with probe (100 μM) and Ang II): dramatic decrease in fluorescence; background fluorescence ([1]; probe 50 μM): relatively higher amounts of background fluorescence; fluorescence of cells incubated with probe alone ([1]; probe 100 μM, no Ang II): significantly less fluorescence; integrated total fluorescence intensity ([4]; aortas of LPS-treated mice (16 mg/kg, 16 hours), probe 15 minutes): 183.2 RFU/S; integrated total fluorescence intensity ([4]; aortas of LPS-treated mice, probe + TEMPOL): 34.9 RFU/S; integrated total fluorescence intensity ([4]; aortas of PBS-treated mice): 46.9 RFU/S"
760,735,~3,CCN1/C(=C/C=C/C=C/C=C/C2N(CC)c3ccccc3C2(C)C)C(C)(C)c2ccccc21 (centres unmarked) [Hydro-Cy7],–,–,–,–,104,fluorescence intensity of LPS-treated mice relative to saline group [6]: approximately two-fold; ROS specificity [7]: specificity for superoxide and hydroxyl radical
693,675,–,CN1/C(=C/C=C/C=C/C2N(C)c3ccc4ccccc4c3C2(C)C)C(C)(C)c2c1ccc1ccccc21 (centres unmarked) [Hydro-IR-676],–,–,–,–,100,–

# The remaining lines, values behind:
SMILES,λem [3] [nm],λex [3] [nm],half-life (physchem) [days],background fluorescence ([1]; probe 10 μM),detection of intracellular ROS after Ang II stimulation ([1]; probe 10 μM),detection of ROS (fluorescence) in cells incubated with Ang II ([1]; probe 100 μM),detection of ROS in tissue explants (LPS versus PBS) [4],Fold Increase in Intensity [3] [fold],also measured
"[2H]C1(c2ccccc2)c2cc(N)ccc2-c2ccc(N)cc2N1CC [D-DHE, deuterohydroethydium]",–,–,–,very low levels of background fluorescence,significant increase in fluorescence,–,–,–,"change in fluorescence on application of TEMPOL ([1]; cells treated with probe (10 μM) and Ang II): dramatic decrease in fluorescence; detection of intracellular ROS after Ang II stimulation ([1]; probe 10 μM, listed as DDE): significantly better than DHE; increase in stability versus DHE (physchem): 4-6 fold; concentration range in which ROS is accurately measured [2]: 5 to 60 nM"
"CCN1c2cc(N)ccc2-c2ccc(N)cc2C1c1ccccc1 (centres unmarked) [DHE, dihydroethydium, reference compound]",590,515,0.0208,large amount of background fluorescence,not detected,failed to detect ROS,failed to detect ROS,–,ROS detection in ligated versus sham carotid artery sections (carotid arteries): increased red fluorescence compared to the sham mice
